# Measurements published in PMC12607897, “Inhibition of HIV-1 replication by primer RNA packaging inhibitors” (mBio, 2025).
# Key:
# [1] = tested on: HIV-1 NL4-3 virus particles; experiment: digital PCR / RT-dPCR of minus-strand strong stop cDNA and viral RNA in particles; format: cell-based; conditions: 10 µM drug, 72 and 96 h after infection
# Description: We used digital RT-PCR and digital PCR to determine the viral mRNA and minus-strand strong stop viral cDNA content of the particles (Fig. 7; Fig. S6). The amount of early viral cDNA produced in the HIV-1 particles is a measure of the efficiency of the initiation step of reverse transcription, which requires the packaging of tRNA3^Lys at the budding step, the primer for cDNA synthesis.
# Fig 7 Effect of drugs on viral synthesis of minus-strand strong stop cDNA. Viruses were harvested from the culture medium after 72 (red) or 96 h (blue) of infection of MT4 cells with NL4-3 viruses. Minus-strand strong stop viral DNA and viral RNA (vRNA) were quantified by digital PCR and RT-dPCR, respectively. Viruses were harvested from cultures grown in the presence of 10 µM of azelastine (Aze), lacidipine (Lac), or cilnidipine (Cil), or H2O or DMSO as controls. Values and the associated standard deviations (n = 3) are expressed as the ratios of the values obtained for the H2O or DMSO controls. […].
# MT4 cells (2 × 10^6 cells) were infected with the NL4-3 viruses. After 4–5 h of infection at 37°C, cells were twice washed with PBS, incubated 5 min at 37°C in 0.25% trypsin-EDTA solution (Gibco) to eliminate viruses remaining in the medium, incubated 5 min at 37°C in complete RPMI medium, twice washed with PBS, resuspended in RPMI medium at a cell density of 200 × 10^3 cells/mL and incubated with 10 µM of azelastine (25 mM stock solution in H20), or lacidipine and cilnidipine (25 mM stock solution in DMSO). A second aliquot of the inhibitors was added to the culture medium 48 h after infection. […] All RNA and DNA quantifications were performed by digital PCR and RT-qPCR on a QIAcuity instrument (QIAGEN) using 26K 24-well nanoplates and the QIAcuity Probe PCR and One-Step Viral RT-PCR kits. Primers and probes were 5′-[…], 5′-[…], and 5′-[…] for the quantification of minus-strand strong-stop cDNA, and 5′-[…], 5′-[…], and 5′-[…] CGT for viral RNA quantification.
# [2] = molecular target: T1, mLysRS:IN interaction (human mLysRS, HIV-1 IN) (UniProt P12497+Q15046); experiment: HTRF assay of mLysRS:IN interaction; format: binding, human / HIV-1; conditions: HTRF; mLysRS 1.5 nM dimer, IN 25 nM dimer; read-out: half-maximal inhibitory concentration (IC50) in the mLysRS:IN assay
# T1 construct: made in house
# Protocol: Fig 1 Determination of the half-maximal inhibitory concentration (IC50) of the drugs in the mLysRS:IN binding assay. The binding of mLysRS to IN (red) or p38 (blue) was monitored in the HTRF assay in the presence of increasing drug concentrations (9–1,000 µM). The experimental values (symbols) were fitted (curves) to the equation Y = Ymin + {(Ymax − Ymin)/[1 + (X/IC50)^n]}, where n is the Hill coefficient. […] Proteins were isolated as described previously ([4]). Several batches of IN were used throughout this study. […] The molecules are dissolved in DMSO at a final concentration of 10 mM. After a 1 h incubation on ice, antibodies (Cisbio) directed to the His-tag and conjugated with Eu^3+ cryptate (Cisbio #61HISKLB) and the HA-tag conjugated with XL665 (Cisbio #610HAXLB) were added, and incubation was continued for 30 min. After the addition of 50 mM KF, fluorescence of Eu^3+ cryptate and of XL665 was recorded at 620 nm (I620) and 665 nm (I665), respectively, following excitation of Eu^3+ cryptate at 317 nm, in an Infinite M1000 PRO microplate reader (TECAN). The results were expressed as the ratio of I665/I620.
# T1 sequence (Q15046 other isoform, or with tags, fused parts or gaps, other chains not shown): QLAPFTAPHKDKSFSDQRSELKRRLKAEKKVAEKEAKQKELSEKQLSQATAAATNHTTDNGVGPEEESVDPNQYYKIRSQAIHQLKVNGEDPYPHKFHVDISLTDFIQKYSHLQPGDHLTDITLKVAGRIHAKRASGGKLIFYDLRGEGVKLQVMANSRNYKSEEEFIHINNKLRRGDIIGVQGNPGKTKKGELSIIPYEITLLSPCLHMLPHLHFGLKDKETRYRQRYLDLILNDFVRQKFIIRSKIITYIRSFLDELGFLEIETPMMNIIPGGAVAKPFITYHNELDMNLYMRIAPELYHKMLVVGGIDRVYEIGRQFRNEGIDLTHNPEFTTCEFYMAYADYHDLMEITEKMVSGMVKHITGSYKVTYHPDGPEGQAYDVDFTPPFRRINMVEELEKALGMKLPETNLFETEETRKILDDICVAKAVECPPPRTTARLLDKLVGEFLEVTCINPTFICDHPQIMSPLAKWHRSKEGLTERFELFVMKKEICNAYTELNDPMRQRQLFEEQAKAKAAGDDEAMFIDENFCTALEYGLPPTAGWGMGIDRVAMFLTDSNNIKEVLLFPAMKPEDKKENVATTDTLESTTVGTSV
smiles,measurement,setting,value
CN1CCCC(n2nc(Cc3ccc(Cl)cc3)c3ccccc3c2=O)CC1 (centres unmarked) [azelastine],"minus-strand strong stop cDNA in viruses, normalized to viral RNA",[1],significantly reduced
same,IC50,[2],340 ± 50 µM
